Key:
Assay type in all cases: cell-based, mouse
[1] = system: IL-33 protein in PyMT cells; assay: IL-33 protein levels in PyMT cells (western blot); details: dose range
Method: Pam212 cells were grown at 37° C. in DMEM (Thermo Fisher Scientific, Waltham, Mass., catalog no. 11995065) supplemented with 10% fetal bovine serum (Thermo Fisher Scientific, catalog no. 26140079), 1× penicillin-streptomycin-glutamine (Thermo Fisher Scientific, catalog no. 10378016), 1×MEM non-essential amino acids solution (Thermo Fisher Scientific, catalog no. 11140050), 1×HEPES (Thermo Fisher Scientific, catalog no. 15630080) and 0.1% 2-Mercaptoethanol (Thermo Fisher Scientific, catalog no. 21985023). PyMT cell lines (derived from a primary breast tumor of MMTV-PyMrg mouse on a C57BL/6 background) were grown at 37° C. in RPMI Medium 1640 (Thermo Fisher Scientific, catalog no. 11875093) supplemented with 10% fetal bovine serum, 1× penicillin-streptomycin-glutamine and 0.1% 2-Mercaptoethanol. IL-33 promoter-luci vector (GeneCopoeia, Rockville, Md., catalog no. MPRM3494-PG02) or Control-luci vector (deletion form of IL-33 promoter region from IL-33 promoter-luci vector) or Poly (I:C) (Invivogen, San Diego, Calif., catalog no. tlrl-pic) in Pam212 cells were performed using Lipofectamine 2000 (Thermo Fisher Scientific, catalog no. 11668019) according to the manufacturer's instructions.
Cell lysates were prepared in LIPA buffer (Thermo Fisher Scientific, catalog no. 89900) consisting of 1× protease inhibitor cocktail, EDTA-free (Thermo Fisher Scientific, catalog no. A32955). […]

[2] = system: IRF3 nuclear translocation; assay: Nuclear fractionation assay, IRF3 in poly (I:C) treated Pam212 cells
Method: Pam212 cell line was transfected with poly (I:C) using Lipofectamine 2000 according to the manufacturer's instructions. After 8 hours, cells were lysed using Nuclear Extraction Kit (Novus biologicals, Littleton, Colo., catalog no. NBP2-29447). Briefly, cells were washed with 1×PBS supplemented with PMSF (Novus biologicals, catalog no. KC-407). Cells were centrifuged for 5 min at 1,000 rpm. Cell pellets were resuspended in 1× cold hypotonic buffer (Novus biologicals, catalog no. KC-401) and incubated on ice for 15 min. After adding 10 μL of the 10% detergent solution (Novus biologicals, catalog no. KC-403), cell lysates were centrifuged 10 min at 14,000 rpm. The supernatants were kept as cytoplasmic fraction and the cell pellets were resuspended in 100 μL nuclear lysis buffer (Novus biologicals, catalog no. KC-402). Lysates from the pellets were sonicated for few seconds and incubated for 10 min at 4° C. Then, lysates were centrifuged at 14,000 rpm for 10 min. The supernatants were kept as nuclear fraction.
Next, to investigate the mechanism by which pitavastatin can block IL-33 expression, we first confirmed p-IRF3 expression level because IRF3 is a transcription factor of IL-33 expression. […] However, pitavastatin treatment with Poly (I:C) to Pam212 cells, level of p-IRF3 was decreased (FIG. 11A). […]

[3] = system: Il33 expression induced by Poly (I:C) in Pam212 cells; assay: Il33 RNA by qPCR in Poly (I:C)-treated Pam212 cells
Method: Pam212 cells were grown at 37° C. in DMEM (Thermo Fisher Scientific, Waltham, Mass., catalog no. 11995065) supplemented with 10% fetal bovine serum (Thermo Fisher Scientific, catalog no. 26140079), 1× penicillin-streptomycin-glutamine (Thermo Fisher Scientific, catalog no. 10378016), 1×MEM non-essential amino acids solution (Thermo Fisher Scientific, catalog no. 11140050), 1×HEPES (Thermo Fisher Scientific, catalog no. 15630080) and 0.1% 2-Mercaptoethanol (Thermo Fisher Scientific, catalog no. 21985023). […]
Mouse dorsal skin samples were homogenized and lysed in RLT lysis solution (QIAGEN, catalog no. 79216)/0.1% MeOH using Mini-BeadBeater-8 (BioSpec Products, Inc., Bartlesville, Okla.). Total RNA was extracted using an RNeasy micro kit and quantified using NanoDrop ND-1100 (NanoDrop Technologies, Wilmington, Del.). cDNA samples were synthesized from 1 μg of total RNA using Invitrogen SuperScripts III Reverse Transcriptase (Thermo Fisher Scientific, catalog no. 18080085). Expression levels of all cDNA samples were determined with LightCycler 480 system (Roche Molecular Systems Inc., Pleasanton, Calif.) using TaqMan Universal Master Mix II (Thermo Fisher Scientific, catalog no. 44-400-40). […]

O=C(O)C[C@H](O)C[C@H](O)/C=C/c1c(C2CC2)nc2ccccc2c1-c1ccc(F)cc1 [pitavastatin]
endogenous IL-33 protein level [1]: decreased
IRF3 localization by nuclear fractionation [2]: remains IRF3 in cytoplasm
Il33 RNA level [3]: decreased

— patent US20230255954A1, “INTERLEUKIN 33 (IL-33) INHIBITION FOR TREATMENT OF CANCER, FIBROSIS AND INFLAMMATION” (The General Hospital Corporation, priority 2020, published 2023)
